Experimental data as given in US7015202B2, “Use of glycyrrhizin and its derivatives as MCP-1 production inhibitors” (Minophagen Pharmaceutical Co., Ltd., priority 2002, dated 2006).

How the values were obtained:
[1] = test system: HSV-1; test: Sensitivity to HSV-1 infection in burn mice; type: in vivo
Procedure: Experimental Method One day after subjecting normal mice and MCP-1 knockout mice to third degree burns over 15% of their body surface area, the animals were intraperitoneally infected with HSV-1 in an amount of 1×10^1 to 1×10^6 pfu/kg body weight. For the control, normal mice were infected with HSV-1 under the same conditions. In addition, MCP-1 (50 ng/mouse) was administered subcutaneously to normal mice 2 hours before infection and 12 and 24 hours after infection. Anti-MCP-1 monoclonal antibody (10 μg/mouse) was administered subcutaneously to the burn mice 2 hours before infection and 12 and 24 hours after infection.

[2] = test system: MCP-1; test: MCP-1 production by IL-10-stimulated peripheral blood mononuclear cells (ELISA); type: cell-based, human; conditions: PBMC from healthy individuals, 20 ng/ml IL-10, compound 100 μg/ml, 24 hours, FIG. 1
Procedure: Peripheral blood was collected from health individuals and the fraction containing peripheral blood mononuclear cells (PBMC) was isolated with Ficoll-Hypaque. Monocytes were inoculated into each well of a 96-well flat-bottom microtiter plate at a concentration of 1×10^6 cells/ml. RPMI1640 medium containing 10% FCS and antibiotics (penicillin and streptomycin) was used for culturing. The cells were cultured using an incubator maintained at a temperature of 37° C. and CO2 concentration of 5%. The cells were stimulated by addition of 20 ng/ml of IL-10 (acquired from PeproTech) to each well, and a solution of glycyrrhizin or its derivatives was added at a concentration of 100 μg/ml to all wells except the control well, after which culturing was continued for 24 hours. Following addition of glycyrrhizin, the culture supernatant was recovered and the amount of MCP-1 in the supernatant was quantified by ELISA. A commercially available kit (trade name: Human MCP-1 BD OptEIA ELISA Kit) was used for ELISA.

[3] = test system: MCP-1; test: MCP-1 production by peripheral blood mononuclear cells from AIDS patients (ELISA); type: cell-based, human; conditions: 0.1 to 100 μg/ml, 24 hours, FIG. 3
Procedure: Peripheral blood was collected from AIDS patients and the fraction containing peripheral blood mononuclear cells was isolated using Ficoll-Hypaque. Mononuclear cells were inoculated into each well of a 96-well flat-bottom microtiter plate at a concentration of 1×10^6 cells/ml. The medium was the same as that used in Example 1. The cells were cultured using an incubator maintained at a temperature of 37° C. and CO2 concentration of 5%.
Glycyrrhizin solution was added to each well except the control well at a final concentration of 0.1 to 100 μg/ml followed by culturing for 24 hours.
Following addition of glycyrrhizin, the culture supernatant was recovered and the amount of MCP-1 in the supernatant was quantified by ELISA. A commercially available kit (trade name: Human MCP-1 BD OptEIA ELISA Kit) was used for ELISA.

[4] = test system: HIV; conditions: reported in recent years; cited from earlier work
[5] = test system: MCP-1; test: MCP-1 production by peripheral blood mononuclear cells from burn patients (ELISA); type: cell-based, human; conditions: 100 μg/ml, 24 hours, FIG. 2
Procedure: Experimental Method Peripheral blood was collected from burn patients (third-degree burns covering 45–78% of the body surface), and peripheral blood mononuclear cells were isolated with Ficoll-Hypaque. 1×10^6 cells/ml of the peripheral blood mononuclear cells were stimulated for 24 hours with 100 μg/ml of glycyrrhizin. Furthermore, mononuclear cells from healthy subjects were cultured under the same conditions for the control. The amount of MCP-1 in the culture supernatant was measured with the Human MCP-1 BD OptEIA ELISA Kit.

[6] = test system: HIV; conditions: 150 to 225 mg (6 to 9 tablets) per day, asymptomatic carriers (AC); cited from earlier work

Row | Compound | infection sensitivity to HSV-1 infection ([1]; normal mice dosed MCP-1 50 ng/mouse subcutaneously 2 hours before and 12 and 24 hours after infection) | production of MCP-1 induced by IL-10 [2] | production of MCP-1 by mononuclear cells from AIDS patients [3] | intracellular growth of HIV [4] | production of MCP-1 by mononuclear cells from burn patients [5] | infection sensitivity to HSV-1 infection ([1]; burn mice (third degree burns, 15% of body surface), HSV-1 intraperitoneal, FIG. 4) | survival without the onset of AIDS [6] [years]
1 | MCP-1: monocyte chemoattractant protein-1, a CC chemokine composed of 76 amino acids | 100 times higher as compared with |  |  |  |  |  | 
2 | CC1(C)[C@@H](O[C@H]2O[C@H](C(=O)O)[C@@H](O)[C@H](O)[C@H]2O[C@@H]2O[C@H](C(=O)O)[C@@H](O)[C@H](O)[C@H]2O)CC[C@]2(C)[C@H]3C(=O)C=C4[C@@H]5C[C@@](C)(C(=O)O)CC[C@]5(C)CC[C@@]4(C)[C@]3(C)CC[C@@H]12.N [glycyrrhizin, monoammonium glycyrrhizinate] |  | inhibiting the production of MCP-1 induced by IL-10 | production of MCP-1 was found to be inhibited | inhibits the intracellular growth of HIV | effectively inhibited the production of MCP-1 | recover to the same level as normal mice | ≥ 10
